The source of these data is publication PMC6522941, “Design, synthesis, and anticancer evaluation of novel quinoline derivatives of ursolic acid with hydrazide, oxadiazole, and thiadiazole moieties as potent MEK inhibitors” (Journal of Enzyme Inhibition and Medicinal Chemistry, 2019).

The experiment has as its system HeLa cells. Description: JC-1 mitochondrial membrane potential assay. Type of experiment: cell-based, human. To be noted: 24 h, control 7.59. On the procedure: The JC-1 mitochondrial membrane potential assay kit (Keygene Biotech., Nanjing, China) was employed to measure mitochondrial depolarisation in HeLa cells. Briefly, cells cultured in six-well plates after indicated treatments by compound 4d were incubated with an equal volume of JC-1 staining solution (5 μg/mL) at 37 °C for 20 min and rinsed twice with PBS. Mitochondrial membrane potentials were monitored by determining the relative amounts of dual emissions from mitochondrial JC-1 monomers or aggregates using flow cytometry (Becton-Dickinson FACSCalibur, New York, NY, USA). Mitochondrial membrane depolarisation is indicated by an increase in the percentage of cells with low ΔΨm (green fluorescence and lower right quadrant) compared with cells with high ΔΨm (red fluorescence and upper right quadrant).
As a kind of important organelle, Mitochondria play indispensable roles not only on supplying metabolic energy in the form of ATP, but also on regulating the signal transmission during the apoptosis of cancer cells. In addition, the mitochondrial dysfunction can be aroused under high ROS exposure, leading to the collapse of mitochondrial membrane potential (ΔΨm), which is a characteristic phenomenon of early apoptosis. Loss of ΔΨm can be detected using the fluorescent cationic dye JC-1, which spontaneously forms red fluorescent dimers (J aggregates) under high ΔΨm, whereas its monomeric form showing green fluorescence is prevalent in cells with low ΔΨm. Green and red fluorescence can be observed at 527 and 590 nm, respectively. Thus, changes in the green/red fluorescence ratio reflect the variation in ΔΨm, which can be quantitatively analysed by flow cytometry.

Turning to `CC(=O)NNC(=O)C12CCC(C)C(C)C1C1=CCC3C4(C)Cc5cc6cc(Cl)ccc6nc5C(C)(C)C4CCC3(C)C1(C)CC2` (stereo not drawn) [Compound 4d, N-[5′-chloro-ursa-12-en-(2,3)-quinoline-28-oyl]-acetohydrazide], the “Cells with low ΔΨm (green fluorescence, lower right quadrant)” value (0.05 μM) was 36.33%; the “Cells with low ΔΨm (green fluorescence, lower right quadrant)” value (0.1 μM) came to 54.08%; the “Cells with low ΔΨm (green fluorescence, lower right quadrant)” value (0.2 μM) amounted to 70.83%.
